Laboratory results reported in publication PMC13385394, “Cryo-EM Structure of the TRPC1/5 Heteromer Enables Design of Antidepressant and Anxiolytic Drug with Reduced Side Effects” (Nature Communications, 2026).
Values joined by “and” are separate entries in the source; they are usually repeats but may differ in a detail not shown here. Identical values can stand only once. Like-named read-outs stand apart in the source and are kept apart here.

How the values were obtained:
TRPC1/5 = molecular target: T1, TRPC1/5 (Homo sapiens, UniProt P48995+Q9UL62); test: Calcium flux assay (Calcium 5 kit, EA 100 nM), hTRPC1 + hTRPC5 in HEK293T cells; format: cell-based; settings: calcium flux screening, 10 μM
T1 construct: Full-length, non-tagged hTRPC1 and hTRPC5 constructs are used for calcium flux assays; expressed in transfected cells; host or cells: HEK293T
T1 sequence (P48995 whole entry, one chain of several): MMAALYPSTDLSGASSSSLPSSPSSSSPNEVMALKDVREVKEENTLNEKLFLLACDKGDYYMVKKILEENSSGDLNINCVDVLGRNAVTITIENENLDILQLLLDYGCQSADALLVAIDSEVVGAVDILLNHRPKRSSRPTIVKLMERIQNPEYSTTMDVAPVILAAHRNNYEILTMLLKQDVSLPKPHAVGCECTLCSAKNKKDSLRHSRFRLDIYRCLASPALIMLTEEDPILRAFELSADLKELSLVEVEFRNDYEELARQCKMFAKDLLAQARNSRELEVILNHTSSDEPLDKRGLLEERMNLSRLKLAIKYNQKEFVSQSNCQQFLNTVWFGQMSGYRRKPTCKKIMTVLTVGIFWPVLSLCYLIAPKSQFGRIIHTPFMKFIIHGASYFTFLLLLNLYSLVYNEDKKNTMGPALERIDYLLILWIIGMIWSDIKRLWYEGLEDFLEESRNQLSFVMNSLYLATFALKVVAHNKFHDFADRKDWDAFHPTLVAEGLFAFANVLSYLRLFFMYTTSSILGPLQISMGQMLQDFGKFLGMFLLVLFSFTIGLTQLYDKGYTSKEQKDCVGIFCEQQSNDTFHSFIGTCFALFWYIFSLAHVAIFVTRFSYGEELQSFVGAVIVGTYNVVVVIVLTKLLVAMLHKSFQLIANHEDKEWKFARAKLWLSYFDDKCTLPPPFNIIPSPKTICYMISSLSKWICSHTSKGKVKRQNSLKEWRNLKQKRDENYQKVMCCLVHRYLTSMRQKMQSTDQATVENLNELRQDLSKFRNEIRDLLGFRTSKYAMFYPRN
Protocol: Full-length, non-tagged hTRPC1 and hTRPC5 constructs are used for calcium flux assays. hTRPC5 is transfected alone or co-transfected with hTRPC1 into HEK293T cells (70–80% confluency) using PEI as the transfection reagent.
The culture medium is removed, and 100 µL of loading buffer (Calcium 5 Assay Kit) is added to each well, followed by a 1-h incubation at 37 °C in 5% CO2. Five minutes before measurement, molecules are added to each well at a final concentration of 10 µM under light-sensitive conditions.

[1] = Pharmacokinetics in mouse after p.o. and i.v. administration; format: in vivo; settings: for AUC(0-inf): read-out: AUCINF_obs; for clearance: read-out: CL_obs; for MRT inf: read-out: MRTINF_obs
[2] = system: CUMS-induced depressive-like behaviors; test: Sucrose preference test (SPT) in CUMS model; format: in vivo, mouse; settings: CUMS mice
Protocol: The stressors included food and water deprivation, foot shock, wet bedding, cage tilting, restraint, shaking, and olfactory stimulation. These seven stressors were randomly applied each week to ensure unpredictability. The stress induction was maintained continuously for 28 days. Following model establishment, the tail suspension test (TST) was performed to confirm the successful induction of depressive-like behaviors. Mice that met the criteria were randomly assigned to experimental groups.
Acute Treatment: A single dose of the test compound was administered, followed by the sucrose preference test (SPT).
Chronic Treatment: Mice were treated daily for 14 consecutive days. The SPT was conducted on day 11, and the forced swimming test (FST) was performed on day 14.
Mice were acclimated to 1% sucrose solution and plain water for 2 days. On the second day, the positions of the sucrose solution and water were swapped to eliminate positional bias. […] Mice were provided with pre-weighed 1% sucrose solution and plain water. […] Sucrose preference (%) was calculated as Sucrose Preference = A/(A + B)×100.

mCPP-induced anxiety = test: Open-field test (OFT), mCPP-induced anxiety model; settings: single dose
TRPC1/4 heteromer = molecular target: T2, TRPC1/4 heteromer (Homo sapiens, UniProt P48995+Q9UBN4); test: Whole-cell patch-clamp, inhibition of TRPC1/4 heteromer; format: cell-based; settings: read-out: IC50, TRPC1/4 heteromers
T2 construct: expressed in transfected cells
T2 sequence (P48995 whole entry): as the sequence (P48995 whole entry, one chain of several) above
T2 sequence (Q9UBN4 whole entry): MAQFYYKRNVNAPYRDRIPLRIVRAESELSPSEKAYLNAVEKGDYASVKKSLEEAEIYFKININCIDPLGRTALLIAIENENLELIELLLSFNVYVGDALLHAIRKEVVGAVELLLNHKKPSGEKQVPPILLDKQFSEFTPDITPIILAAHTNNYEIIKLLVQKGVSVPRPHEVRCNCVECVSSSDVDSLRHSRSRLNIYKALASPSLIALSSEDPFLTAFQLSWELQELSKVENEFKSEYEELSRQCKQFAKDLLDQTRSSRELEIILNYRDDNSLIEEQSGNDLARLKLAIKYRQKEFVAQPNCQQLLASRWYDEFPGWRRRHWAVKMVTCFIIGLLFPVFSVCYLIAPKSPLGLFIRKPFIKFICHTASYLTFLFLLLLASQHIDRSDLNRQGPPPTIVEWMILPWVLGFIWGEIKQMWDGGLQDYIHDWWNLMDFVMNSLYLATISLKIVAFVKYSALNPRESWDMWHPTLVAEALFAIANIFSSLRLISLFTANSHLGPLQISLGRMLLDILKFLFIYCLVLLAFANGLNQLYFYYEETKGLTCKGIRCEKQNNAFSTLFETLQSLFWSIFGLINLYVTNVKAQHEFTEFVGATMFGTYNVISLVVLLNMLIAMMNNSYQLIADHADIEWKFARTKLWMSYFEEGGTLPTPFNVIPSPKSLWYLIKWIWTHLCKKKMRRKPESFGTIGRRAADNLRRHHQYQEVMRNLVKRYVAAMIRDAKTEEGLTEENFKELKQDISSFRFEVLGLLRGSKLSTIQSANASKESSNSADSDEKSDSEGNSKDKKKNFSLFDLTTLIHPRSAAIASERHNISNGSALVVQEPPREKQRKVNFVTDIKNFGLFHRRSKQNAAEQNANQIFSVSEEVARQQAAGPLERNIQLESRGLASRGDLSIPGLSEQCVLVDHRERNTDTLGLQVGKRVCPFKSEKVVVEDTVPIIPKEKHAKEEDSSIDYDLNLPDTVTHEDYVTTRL

TRPC5 homomers = molecular target: T3, TRPC5 homomers (Homo sapiens, UniProt Q9UL62); test: Whole-cell patch-clamp, inhibition of EA-activated TRPC5 homomers; format: cell-based
T3 construct: full length hTRPC5 (TRPC5 wild type (WT)); expressed in transfected cells; host or cells: HEK293T
T3 sequence (Q9UL62 1-973): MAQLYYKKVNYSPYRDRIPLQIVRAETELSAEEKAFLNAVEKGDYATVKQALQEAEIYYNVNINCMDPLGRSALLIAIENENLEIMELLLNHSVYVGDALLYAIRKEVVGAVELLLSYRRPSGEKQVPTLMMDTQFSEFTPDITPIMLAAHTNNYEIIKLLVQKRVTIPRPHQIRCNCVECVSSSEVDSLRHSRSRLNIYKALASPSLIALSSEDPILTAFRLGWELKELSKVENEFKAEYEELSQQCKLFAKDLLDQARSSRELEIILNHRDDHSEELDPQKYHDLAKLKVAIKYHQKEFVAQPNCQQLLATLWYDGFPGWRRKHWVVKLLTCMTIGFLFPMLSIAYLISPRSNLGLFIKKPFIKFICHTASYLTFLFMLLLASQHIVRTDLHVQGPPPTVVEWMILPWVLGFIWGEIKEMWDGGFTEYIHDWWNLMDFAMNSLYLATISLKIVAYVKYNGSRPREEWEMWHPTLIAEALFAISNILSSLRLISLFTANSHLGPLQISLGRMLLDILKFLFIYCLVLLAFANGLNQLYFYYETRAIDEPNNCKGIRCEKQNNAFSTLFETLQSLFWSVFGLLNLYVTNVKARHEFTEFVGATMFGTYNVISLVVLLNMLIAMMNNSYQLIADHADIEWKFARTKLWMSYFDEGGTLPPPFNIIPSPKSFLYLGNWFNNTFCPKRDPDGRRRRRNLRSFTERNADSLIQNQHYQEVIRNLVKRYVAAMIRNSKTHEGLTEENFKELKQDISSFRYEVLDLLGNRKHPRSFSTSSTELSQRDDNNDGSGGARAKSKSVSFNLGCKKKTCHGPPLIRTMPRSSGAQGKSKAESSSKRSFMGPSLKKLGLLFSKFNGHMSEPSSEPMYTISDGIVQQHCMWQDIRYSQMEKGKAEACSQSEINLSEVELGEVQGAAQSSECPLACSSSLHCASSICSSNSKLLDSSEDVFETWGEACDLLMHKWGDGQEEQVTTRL

[3] = C57BL/6J, mouse, in vivo, iv, 2 mg/kg, mouse 2mg/kg i.v., Mean
[4] = C57BL/6J, mouse, in vivo, iv, 2 mg/kg, mouse 2mg/kg i.v., individual animals 4-6
[5] = C57BL/6J, mouse, in vivo, po, 10 mg/kg, mouse 10mg/kg p.o., Mean
[6] = C57BL/6J, mouse, in vivo, po, 10 mg/kg, mouse 10mg/kg p.o., individual animals 1-3
[7] = mouse 2mg/kg i.v., individual animals 4-6, listed as JD03-02, 2 mg/kg
[8] = mouse 10mg/kg p.o., individual animals 1-3, listed as JD03-02, 10 mg/kg

## CN(C)CCCCn1c(=O)c2c(nc(Oc3cccc(Cl)c3)n2Cc2ccc(Cl)cc2)n(C)c1=O [H08]
TRPC1/5
  inhibition of TRPC1/5 heteromers (in words): strong inhibition
[1]; C57BL/6J, in vivo, po, mouse 10mg/kg p.o., Mean
  Tmax: 1 h
[1]; [3]
  AUC(0-t): 478 ng·h/mL
  half-life: 185 min
  AUC(0-inf): 519 ng·h/mL
  clearance: 65.9 mL/min/kg
  MRT inf: 3.94 h
[1]; [4]
  AUC(0-t): 385 ng·h/mL
  half-life: 211 min
  AUC(0-inf): 469 ng·h/mL
  clearance: 71 mL/min/kg
  MRT inf: 4.46 h
[1]; [5]
  AUC(0-t): 1190 ng·h/mL
  half-life: 174 min
  AUC(0-inf): 1220 ng·h/mL
  MRT inf: 5.27 h
[1]; C57BL/6J, mouse, in vivo, po, 10 mg/kg, mouse 10mg/kg p.o., Mean, read-out: Cmax
  Cmax: 201 ng/mL
[1]; [6]
  half-life: 172 min
  AUC(0-inf): 1300 ng·h/mL
  MRT inf: 4.73 h
[1]; C57BL/6J, mouse, in vivo, po, 10 mg/kg, mouse 10mg/kg p.o., individual animals 1-3, read-out: Cmax
  Cmax: 256 ng/mL
[1]; brain and heart plasma, po, 10 mg/kg, mouse p.o., read-out: AUClast brain/AUClast heart plasma (brain-to-plasma ratio, B/P)
  Kp: 0.67
[1]; brain and heart plasma, po, 10 mg/kg, mouse p.o., read-out: Clast brain/Cmax heart plasma
  Kp at 4 h: 0.83
[1]; in vivo, oral, mouse 10mg/kg p.o. vs 2mg/kg i.v., read-out: F (oral bioavailability)
  bioavailability: 49.8%
[1]; mouse 2mg/kg i.v., Mean
  Vss_obs: 15296 mL/kg
[1]; [7]
  AUCINF_obs: 447 ng·h/mL and 640 ng·h/mL
  AUClast: 416 ng·h/mL and 634 ng·h/mL
  CL_obs: 74.6 mL/min/kg and 52.1 mL/min/kg
  MRTINF_obs: 2.895 h and 4.460 h
  T1/2: 2.06 h and 3.69 h
  Vss_obs: 18984 mL/kg and 12955 mL/kg and 13949 mL/kg
[1]; [8]
  AUCINF_obs: 1549 ng·h/mL and 800 ng·h/mL
  AUClast: 1294 ng·h/mL and 1532 ng·h/mL and 746 ng·h/mL
  Cmax: 205 ng/mL and 143 ng/mL
  MRTINF_obs: 6.50 h and 4.58 h
  T1/2: 3.35 h and 2.48 h
[1]; mouse p.o., brain
  AUClast: 524 ng·h/g
[1]; mouse, brain, po, 10 mg/kg, mouse p.o., brain, read-out: Cmax
  Cmax: 265 ng/g
[1]; mouse, brain, single 10 mg/kg oral dose, at 4 hours
  concentration at 4 h: ~513 nM
[1]; mouse, heart plasma, po, 10 mg/kg, mouse p.o.
  AUC(0-t): 778 ng·h/mL
[1]; mouse, heart plasma, po, 10 mg/kg, mouse p.o., heart plasma, read-out: Cmax
  Cmax: 318 ng/mL
[1]; mouse, portal vein plasma, po, 10 mg/kg, mouse p.o.
  AUC(0-t): 1330 ng·h/mL
[1]; mouse, portal vein plasma, po, 10 mg/kg, mouse p.o., portal vein plasma, read-out: Cmax
  Cmax: 493 ng/mL
[1]; po, 10 mg/kg, mouse p.o., brain
  Tmax: 4 h
[1]; po, 10 mg/kg, mouse p.o., heart plasma
  Tmax: 4 h
[1]; po, 10 mg/kg, mouse p.o., portal vein plasma
  Tmax: 0.25 h
[2]; 11 days once-daily oral, vs vehicle
  sucrose intake (SPT), repeated dosing: significantly improved sucrose intake
[2]; single oral dose, JD03-02 30 mg/kg, 30 mg/kg
  sucrose preference (SPT), single dose: significantly increased sucrose preference
mCPP-induced anxiety; mCPP mice
  OFT central zone entries and time in central zone: enhancing numbers of central zone entries and time spent in the central zone
mCPP-induced anxiety; mCPP-induced anxiety-like mice
  OFT total distance traveled: no significant effect
TRPC1/4 heteromer
  IC50: 6.68 nM and 6.7 nM
TRPC5 homomers
  concentration at which inhibition of TRPC5 homomers appears: > 5 µM
TRPC5 homomers; whole-cell patch-clamp
  HillSlope, TRPC5: 1.990
  IC50: 8.5 µM
TRPC5 homomers; whole-cell patch-clamp, listed as JD03-02
  HillSlope, TRPC5: > 1
